{"source": "PubChem BioAssay (NCI)", "assay_in_all_cases": "inhibition of tumour cell growth, NCI panel, 384-well format", "key": {"SF-295 CNS": {"system": "SF-295 CNS"}, "T-47D breast": {"system": "T-47D breast"}, "NCI-H522 lung": {"system": "NCI-H522 lung"}, "SNB-19 CNS": {"system": "SNB-19 CNS"}, "NCI-H460 NSCLC": {"system": "NCI-H460 NSCLC"}, "TK-10 renal": {"system": "TK-10 renal"}, "SK-OV-3 ovarian": {"system": "SK-OV-3 ovarian"}, "786-0 renal": {"system": "786-0 renal"}, "HCC-2998 colon": {"system": "HCC-2998 colon"}, "HCT-15 colon": {"system": "HCT-15 colon"}, "CCRF-CEM leukemia": {"system": "CCRF-CEM leukemia"}, "U251 glioblastoma": {"system": "U251 glioblastoma"}, "A498 renal": {"system": "A498 renal"}, "OVCAR-4 ovarian": {"system": "OVCAR-4 ovarian"}, "SF-268 CNS": {"system": "SF-268 CNS"}, "MOLT-4 leukemia": {"system": "MOLT-4 leukemia"}, "BT-549 breast": {"system": "BT-549 breast"}, "SK-MEL-28 melanoma": {"system": "SK-MEL-28 melanoma"}, "MDA-MB-468 breast": {"system": "MDA-MB-468 breast"}, "EKVX NSCLC": {"system": "EKVX NSCLC"}, "PC-3 prostate": {"system": "PC-3 prostate"}, "HL-60(TB) leukemia": {"system": "HL-60(TB) leukemia"}, "ACHN renal": {"system": "ACHN renal"}, "SK-MEL-5 melanoma": {"system": "SK-MEL-5 melanoma"}, "NCI-H322M lung": {"system": "NCI-H322M lung"}, "MALME-3M melanoma": {"system": "MALME-3M melanoma"}, "OVCAR-8 ovarian": {"system": "OVCAR-8 ovarian"}, "COLO 205 colon": {"system": "COLO 205 colon"}, "HCT-116 colon": {"system": "HCT-116 colon"}}, "note": "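The concentration for 50% growth inhibition is given as GI50. TGI denotes the concentration required for complete inhibition of growth.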", "data": [{"smiles": "CC(C)(F)C[C@H](N[C@@H](c1ccc(-c2ccc(S(C)(=O)=O)cc2)cc1)C(F)(F)F)C(=O)NC1(C#N)CC1", "values": [{"measurement": "GI50", "setting": "SF-295 CNS", "result": 22.9, "unit": "µM"}, {"measurement": "TGI", "setting": "SF-295 CNS", "result": 63.4, "unit": "µM"}, {"measurement": "GI50", "setting": "T-47D breast", "result": 36.6, "unit": "µM"}, {"measurement": "TGI", "setting": "T-47D breast", "result": "> 100", "unit": "µM"}, {"measurement": "GI50", "setting": "NCI-H522 lung", "result": 21.4, "unit": "µM"}, {"measurement": "TGI", "setting": "NCI-H522 lung", "result": 40.2, "unit": "µM"}, {"measurement": "GI50", "setting": "SNB-19 CNS", "result": 35.7, "unit": "µM"}, {"measurement": "TGI", "setting": "SNB-19 CNS", "result": 92.4, "unit": "µM"}, {"measurement": "GI50", "setting": "NCI-H460 NSCLC", "result": 22.4, "unit": "µM"}, {"measurement": "TGI", "setting": "NCI-H460 NSCLC", "result": 53.8, "unit": "µM"}, {"measurement": "GI50", "setting": "TK-10 renal", "result": 33.1, "unit": "µM"}, {"measurement": "TGI", "setting": "TK-10 renal", "result": 97.9, "unit": "µM"}, {"measurement": "GI50", "setting": "SK-OV-3 ovarian", "result": 27.3, "unit": "µM"}, {"measurement": "TGI", "setting": "SK-OV-3 ovarian", "result": 69.6, "unit": "µM"}, {"measurement": "GI50", "setting": "786-0 renal", "result": 21.9, "unit": "µM"}, {"measurement": "TGI", "setting": "786-0 renal", "result": 53.5, "unit": "µM"}, {"measurement": "GI50", "setting": "HCC-2998 colon", "result": "> 100", "unit": "µM"}, {"measurement": "TGI", "setting": "HCC-2998 colon", "result": "> 100", "unit": "µM"}, {"measurement": "GI50", "setting": "HCT-15 colon", "result": "> 100", "unit": "µM"}, {"measurement": "TGI", "setting": "HCT-15 colon", "result": "> 100", "unit": "µM"}, {"measurement": "GI50", "setting": "CCRF-CEM leukemia", "result": "> 100", "unit": "µM"}, {"measurement": "TGI", "setting": "CCRF-CEM leukemia", "result": "> 100", "unit": "µM"}, {"measurement": "GI50", "setting": "U251 glioblastoma", "result": 24.7, "unit": "µM"}, {"measurement": "TGI", "setting": "U251 glioblastoma", "result": 55.5, "unit": "µM"}, {"measurement": "GI50", "setting": "A498 renal", "result": 21.3, "unit": "µM"}, {"measurement": "TGI", "setting": "A498 renal", "result": 46.7, "unit": "µM"}, {"measurement": "GI50", "setting": "OVCAR-4 ovarian", "result": 19.8, "unit": "µM"}, {"measurement": "TGI", "setting": "OVCAR-4 ovarian", "result": 38, "unit": "µM"}, {"measurement": "GI50", "setting": "SF-268 CNS", "result": 22.1, "unit": "µM"}, {"measurement": "TGI", "setting": "SF-268 CNS", "result": 41, "unit": "µM"}, {"measurement": "GI50", "setting": "MOLT-4 leukemia", "result": 41.1, "unit": "µM"}, {"measurement": "TGI", "setting": "MOLT-4 leukemia", "result": "> 100", "unit": "µM"}, {"measurement": "GI50", "setting": "BT-549 breast", "result": 39.7, "unit": "µM"}, {"measurement": "TGI", "setting": "BT-549 breast", "result": "> 100", "unit": "µM"}, {"measurement": "GI50", "setting": "SK-MEL-28 melanoma", "result": 40.9, "unit": "µM"}, {"measurement": "TGI", "setting": "SK-MEL-28 melanoma", "result": "> 100", "unit": "µM"}, {"measurement": "GI50", "setting": "MDA-MB-468 breast", "result": 39.4, "unit": "µM"}, {"measurement": "TGI", "setting": "MDA-MB-468 breast", "result": "> 100", "unit": "µM"}, {"measurement": "GI50", "setting": "EKVX NSCLC", "result": 39.2, "unit": "µM"}, {"measurement": "TGI", "setting": "EKVX NSCLC", "result": "> 100", "unit": "µM"}, {"measurement": "GI50", "setting": "PC-3 prostate", "result": 41.3, "unit": "µM"}, {"measurement": "TGI", "setting": "PC-3 prostate", "result": "> 100", "unit": "µM"}, {"measurement": "GI50", "setting": "HL-60(TB) leukemia", "result": "> 100", "unit": "µM"}, {"measurement": "TGI", "setting": "HL-60(TB) leukemia", "result": "> 100", "unit": "µM"}, {"measurement": "GI50", "setting": "ACHN renal", "result": "> 100", "unit": "µM"}, {"measurement": "TGI", "setting": "ACHN renal", "result": "> 100", "unit": "µM"}, {"measurement": "GI50", "setting": "SK-MEL-5 melanoma", "result": 23, "unit": "µM"}, {"measurement": "TGI", "setting": "SK-MEL-5 melanoma", "result": 55.8, "unit": "µM"}, {"measurement": "GI50", "setting": "NCI-H322M lung", "result": 49.8, "unit": "µM"}, {"measurement": "TGI", "setting": "NCI-H322M lung", "result": "> 100", "unit": "µM"}, {"measurement": "GI50", "setting": "MALME-3M melanoma", "result": 33.7, "unit": "µM"}, {"measurement": "TGI", "setting": "MALME-3M melanoma", "result": 86.9, "unit": "µM"}, {"measurement": "GI50", "setting": "OVCAR-8 ovarian", "result": 20.7, "unit": "µM"}, {"measurement": "TGI", "setting": "OVCAR-8 ovarian", "result": 46.1, "unit": "µM"}, {"measurement": "GI50", "setting": "COLO 205 colon", "result": "> 100", "unit": "µM"}, {"measurement": "TGI", "setting": "COLO 205 colon", "result": "> 100", "unit": "µM"}, {"measurement": "GI50", "setting": "HCT-116 colon", "result": "> 100", "unit": "µM"}, {"measurement": "TGI", "setting": "HCT-116 colon", "result": "> 100", "unit": "µM"}]}]}
